According to US6777405B2, “Detection and treatment of duplex polynucleotide damage” (California Institute of Technology, priority 1997, dated 2004):

Legend:
[1] = tested on: DNA duplexes having a single base pair mismatch (SEQ ID NO:1/SEQ ID NO:2); assay: Photocleavage of 17-mer DNA duplexes with a single base pair mismatch (365 nm, PAGE); assay type: biochemical
Description: A set of DNA duplexes was prepared having the following sequence:
3′-[…]-5′(SEQ ID NO:1)
5′-[…]-3′(SEQ ID NO:2),
where X and Y were varied to provide A-T, G-C, and the following mismatches: C-C, C-A, T-T, A-A, T-C, T-G, G-A, and G-G. All oligonucleotides were prepared using standard phosphoramidite chemistry, and were purified by reverse phase HPLC. The oligonucleotides were 5′ end-labeled with γ-^32P ATP (Dupont-NEN) and T4 polynucleotide kinase (New England Biolabs).
Duplexes (10 μM) were incubated with Δ or Λ [Rh(bpy)2(chrysi)]^3+(1 μM in 50 mM Tris, 20 mM NaOAc, 18 mM NaCl, pH 7.0) for 11 minutes, then irradiated for 13 min at 365 nm using an Oriel HgXe arc lamp. The products were analyzed by PAGE (20%, denaturing), imaged using a Molecular Dynamics Phosphorimager. The lanes labeled A+G and C+T are standard Maxam-Gilbert sequencing reactions: the remaining columns show cleavage (or lack of cleavage) for each tested mismatch with each enantiomer. […] Here, cleavage occurred to the 3′ side of the mismatch site. […] Unlike the other recognized mismatches, the cleavage 3′ to C-A results in two products having different gel mobility, possibly the result of chemically different polymer termini. The cleavage of A-A was also distinctive.

[2] = tested on: mismatch-sequence context combinations in DNA duplexes; assay: Photocleavage with systematically changed bases 5′ and 3′ of the mismatch site; assay type: biochemical; settings: flanking bases 5′ and 3′ of the mismatch systematically changed
[3] = tested on: hairpin DNA oligonucleotide (SEQ ID NO:3) having a single C-C mismatch; assay: Photocleavage titration on hairpin DNA with single C-C mismatch; settings: 313 or 365 nm, Rh complex at 0.10× DNA concentration, single binding site model fit
Description: A hairpin DNA oligonucleotide was synthesized with the sequence:
5′-[…]-3′ (SEQ ID NO:3), having a single C-C mismatch. The hairpin was photocleaved as described in Example 2 above with Δ[Rh(bpy)2(chrysi)]^3+ at either 313 nm or 365 nm for 7.5 to 15 min. Hairpin DNA concentration was varied from 3×10^−10 M to 1×10^−4 M, with the Rh complex used at 0.10× the DNA concentration. The cleavage products were eluted through 20% denaturing polyacrylamide gels, and analyzed using a Molecular Dynamics Phosphorimager and ImageQuant software. Cleavage was observed 3′ to the C-C mismatch on both sides of the hairpin: only the cleavage band closest to the end label was quantitated. Data from multiple trials was normalized (open circles) and fit to a standard single binding site binding model (solid line).
(§1) The thermodynamic binding constant was determined to be 8.4 (±1.0)×10^5 M^−1. Similar DNA photocleavage titrations at other mismatch sites have measured the affinity of Δ [Rh(bpy)2(chrysi)]^3+ between 1×10^7 and 3×10^5 M^−1. To examine the level of selectivity the average binding constant of Δ[Rh(bpy)2(chrysi)]^3+ to B-form DNA was also determined. Photocleavage on a 33mer correctly matched hairpin and competitive titration with unlabeled 25mer B-DNA yielded a value of 4 (±2)×10^4 M^−1 for the average non-specific binding affinity.

[4] = tested on: B-form DNA (33mer correctly matched hairpin, 25mer B-DNA); assay: Photocleavage on correctly matched hairpin and competitive titration with unlabeled B-DNA; assay type: binding
Description: as §1

[5] = duplex 10 μM, complex 1 μM, 13 min at 365 nm
[6] = duplex 10 μM, complex 1 μM, 13 min at 365 nm, compared with C-C

Row | Substance | mismatch pairs cleaved among all tested pairs ([1]; A-T, G-C, C-C, C-A, T-T, A-A, T-C, T-G, G-A, G-G tested) | photocleavage at A-A mismatch relative to the other enantiomer [1, 5] | photocleavage at A-A mismatch, base 3′ to the site [1, 5] | photocleavage at the A-A site itself [1, 5] | photocleavage at C-A mismatch ([1]; duplex 10 μM, complex 1 μM, 13 min at 365 nm, at the mismatched C and the base 3′ to the mismatch site) | photocleavage at T-C mismatch [1, 6] | photocleavage at T-T mismatch [1, 6] | photocleavage at C-C mismatch ([1]; duplex 10 μM, complex 1 μM, pH 7.0, irradiated 13 min at 365 nm, cleavage to the 3′ side of the mismatch site) | mismatch-sequence context combinations at which photocleavage was observed (count) [2] | mismatch-sequence context combinations at which photocleavage was observed (percent) [2] [%] | thermodynamic binding constant [3] | average non-specific binding affinity [4]
1 | Λ-[Rh(bpy)2(chrysi)]Cl3 [Λ enantiomer] | The A-A mismatch is the only pair cleaved | weaker cleavage | – | – | – | – | – | – | – | – | – | –
2 | Δ-[Rh(bpy)2(chrysi)]Cl3 [Δ[Rh(bpy)2(chrysi)]^3+] | – | – | strong cleavage | a small amount of cleavage | Strong cutting | less intense cleavage | less intense cleavage | strongest cleavage intensity | 83 of 104 | 80 | 8.4 (±1.0)×10^5 M^−1 | 4 (±2)×10^4 M^−1
